# According to patent US7056935B2, “Rotamase enzyme activity inhibitors” (GPI NIL Holdings, Inc., priority 1995, dated 2006):
# Where two headings read alike, the source gives them in different places.
# Experiments:
# [1] = test system: chick dorsal root ganglia (DRG) explants; experiment: Chick dorsal root ganglion cultures and neurite outgrowth; assay type: cell-based; conditions: read-out: ED50, nM Neurite Outgrowth in DRG Cultures
# Protocol: Dorsal root ganglia were dissected from chick embryos of ten day gestation. Whole ganglion explants were cultured on thin layer Matrigel-coated 12 well plates with Liebovitz L15 plus high glucose media supplemented with 2 mM glutamine and 10% fetal calf serum, and also containing 10 μM cytosine β-D arabinofuranoside (Ara C) at 37° C. in an environment containing 5% CO2. Twenty-four hours later, the DRGs were treated with various concentrations of nerve growth factor (NGF), immunophilin ligands or combinations of NGF plus drugs. Forty-eight hours after drug treatment, the ganglia were visualized under phase contrast or Hoffman Modulation contrast with a Zeiss Axiovert inverted microscope. Photomicrographs of the explants were made, and neurite outgrowth was quantitated. Neurites longer than the DRG diameter were counted as positive, with total number of neurites quantitated per each experimental condition. Three to four DRGs were cultured per well, and each treatment was performed in duplicate.
# FKBP = FKBP (Homo sapiens, UniProt P62942); experiment: Ki test procedure: inhibition of peptidyl-prolyl isomerase (rotamase) activity, chymotrypsin-coupled assay; assay type: biochemical; conditions: apparent Ki, substrate N-succinyl-Ala-Phe-Pro-Phe-p-nitroanilide
# Sequence of FKBP (P62942 whole entry): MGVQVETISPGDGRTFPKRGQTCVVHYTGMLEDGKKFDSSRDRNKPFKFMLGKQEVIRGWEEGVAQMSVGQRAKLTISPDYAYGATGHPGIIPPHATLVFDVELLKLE
# [2] = drug alone, chick embryo DRG explants, 48 hours after drug treatment
Compound,"EC50 ([1]; Gallus gallus, 48 h) [nM]",other results
"O=C(C(=O)N1CCCCC1C(=O)OCc1ccccc1)c1ccccc1 (centres unmarked) [Compound 1, Benzyl N-(phenylglyoxyl)-2-piperidinecarboxylate]",25 to 100,–
"O=C(C(=O)N1CCCCC1C(=O)OCCCc1ccccc1)c1ccccc1 (centres unmarked) [Compound 2, 3-Phenyl-1-propyl N-(phenylglyoxyl)-2-piperidinecarboxylate]",10 to 20,–
COc1ccc(CCCCOC(=O)C2CCCCN2C(=O)C(=O)c2ccccc2)cc1 (centres unmarked) [Compound 3],0.5,–
"O=C(C(=O)N1CCCCC1C(=O)OCCCCc1ccccc1)c1ccccc1 (centres unmarked) [Compound 4, 4-Phenyl-1-butyl N-(phenylglyoxyl)-2-piperidinecarboxylate]",25 to 100,–
"O=C(C(=O)N1CCCCC1C(=O)OCCc1ccccc1)c1ccccc1 (centres unmarked) [Compound 5, 2-Phenyl-1-ethyl N-(phenylglyoxyl)-2-piperidinecarboxylate]",25 to 100,–
"COC(=O)C(=O)N1CCCCC1C(=O)OCc1ccccc1 (centres unmarked) [Compound 7, Benzyl N-(methoxyglyoxyl)-2-piperidinecarboxylate]",> 10000,–
"COc1cc(C(=O)C(=O)N2CCCCC2C(=O)OCCCCc2ccccc2)cc(OC)c1OC [Compound 14, 4-Phenylbutyl (S)-N-(3,4,5-trimethoxyphenylglyoxyl)pipecolate]",1 to 5,–
"COc1ccc(CCCCOC(=O)C2CCCCN2C(=O)C(=O)c2cc(OC)c(OC)c(OC)c2)cc1 [Compound 16, 4-(4-Methoxyphenyl)butyl (S)-N-(3,4,5-trimethoxyphenylglyoxyl)pipecolate]",0.03,–
"CCC(C)(C)C(=O)C(=O)N1CCC[C@H]1C(=O)OCCCc1ccccc1 [Compound 17, 3-phenyl-1-propyl (2S)-1-(3,3-dimethyl-1,2-dioxopentyl)-2-pyrrolidinecarboxylate]",0.053,–
"CCC(C)(C)C(=O)C(=O)N1CCC[C@H]1C(=O)OC/C=C/c1ccccc1 [Compound 18, 3-phenyl-1-prop-2-(E)-enyl (2S)-1-(3,3-dimethyl-1,2-dioxopentyl)-2-pyrrolidinecarboxylate]",105,–
"CCC(C)(C)C(=O)C(=O)N1CCC[C@H]1C(=O)OCCCc1cc(OC)c(OC)c(OC)c1 [Compound 19, 3-(3,4,5-trimethoxyphenyl)-1-propyl (2S)-1-(3,3-dimethyl-1,2-dioxopentyl)-2-pyrrolidine-carboxylate]",80,Ki (FKBP; Table I): 25 nM
"CCC(C)(C)C(=O)C(=O)N1CCC[C@H]1C(=O)OC/C=C/c1cc(OC)c(OC)c(OC)c1 [Compound 20, 3-(3,4,5-trimethoxyphenyl)-1-prop-2-(E)-enyl (2S)-1-(3,3-dimethyl-1,2-dioxopentyl)-2-pyrrolidine carboxylate]",190,Ki (FKBP; Table I): 125 nM
"CCC(C)(C)C(=O)C(=O)N1CCC[C@H]1C(=O)OC/C=C/c1ccc(Cl)c(Cl)c1 [Compound 21, 3-(4,5-Dichlorophenyl)-1-prop-2-(E)-enyl (2S)-1-(3,3-dimethyl-1,2-dioxopentyl)-2-pyrrolidine carboxylate]",85,Ki (FKBP; Table I): 2500 nM
"CCC(C)(C)C(=O)C(=O)N1CCC[C@H]1C(=O)OC/C=C/c1cc(OC)ccc1OC [Compound 22, 3-(2,5-Dimethoxyphenyl)-1-prop-2(E)-enyl (2S)-1-(3,3-dimethyl-1,2-dioxopentyl)-2-pyrrolidinecarboxylate]",0.8,–
"CCC(C)(C)C(=O)C(=O)N1CCC[C@H]1C(=O)OCCCc1cccnc1 [Compound 23, 3-(3-Pyridyl)-1-propyl (2S)-1-(3,3-dimethyl-1,2-dioxopentyl)-2-pyrrolidinecarboxylate]",0.05,–
"O=C(C(=O)N1CCC[C@H]1C(=O)OCCCc1ccccc1)C1CCCCC1 [Compound 24, 3-Phenyl-1-propyl (2S)-1-(cyclohexylglyoxyl)-2-pyrrolidinecarboxylate]",0.13,–
O=C(C(=O)N1CCCCC1C(=O)OC(CCCc1ccccc1)CCCc1ccccc1)c1ccccc1 (centres unmarked) [Compound 28],–,"EC50 [1, 2]: 0.0044 nM"
"COc1cc(C(=O)C(=O)N2CCCCC2C(=O)OC(CCCc2ccccc2)CCCc2ccccc2)cc(OC)c1OC [Compound 29, 1,7-Diphenyl-4-heptyl (S)-N-(3,4,5-trimethoxyphenylglyoxyl)pipecolate]",–,"EC50 [1, 2]: 0.61 nM"
"COc1cc(C(=O)C(=O)N2CCCCC2C(=O)OC(CCCc2ccccc2)CCc2cccnc2)cc(OC)c1OC [Compound 30, 1-Phenyl-6-(3-pyridyl)-3-hexyl (S)-N-(3,4,5-trimethoxyphenylglyoxyl)pipecolate]",0.95,–
"COc1cc(C(=O)C(=O)N2CCCCC2C(=O)OC(CCCc2ccccc2)CCCc2ccccn2)cc(OC)c1OC [Compound 31, 1-Phenyl-7-(2-pyridyl)-4-heptyl (S)-N-(3,4,5-trimethoxyphenylglyoxyl)pipecolate]",25,Ki (FKBP; Table II): 1 nM
"COc1ccc(CCCC(CCCc2ccccc2)OC(=O)C2CCCCN2C(=O)C(=O)c2cc(OC)c(OC)c(OC)c2)cc1 [Compound 32, 1-Phenyl-7-(4-methoxyphenyl)-4-heptyl (S)-N-(3,4,5-trimethoxyphenylglyoxyl)-pipecolate]",0.5,Ki (FKBP; Table II): 3 nM
